Measured values as given in PubChem BioAssay (NCI).
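Exposure lasted 48 hours, with cells grown in 96-well plates and compounds tested at five concentrations. GI50: concentration for 50% inhibition of growth. The concentration for full growth arrest is given as TGI.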

Columns and labels:
Experiment in all cases: NCI tumour cell line growth inhibition, 48 h
786-0 renal = system: 786-0 renal
A498 renal = system: A498 renal
A549 NSCLC = system: A549 NSCLC
ACHN renal = system: ACHN renal
BT-549 breast = system: BT-549 breast
CAKI-1 renal = system: CAKI-1 renal
CCRF-CEM leukemia = system: CCRF-CEM leukemia
COLO 205 colon = system: COLO 205 colon
DU-145 prostate = system: DU-145 prostate
EKVX NSCLC = system: EKVX NSCLC
HCC-2998 colon = system: HCC-2998 colon
HCT-116 colon = system: HCT-116 colon
HCT-15 colon = system: HCT-15 colon
HL-60(TB) leukemia = system: HL-60(TB) leukemia
HOP-62 NSCLC = system: HOP-62 NSCLC
HOP-92 NSCLC = system: HOP-92 NSCLC
HS 578T breast = system: HS 578T breast
HT29 colon = system: HT29 colon
IGROV1 ovarian = system: IGROV1 ovarian
K-562 leukemia = system: K-562 leukemia
KM12 colon = system: KM12 colon
LOX IMVI melanoma = system: LOX IMVI melanoma
M14 melanoma = system: M14 melanoma
MCF7 breast = system: MCF7 breast
MDA-MB-231 breast = system: MDA-MB-231 breast
MDA-MB-435 = system: MDA-MB-435
MOLT-4 leukemia = system: MOLT-4 leukemia
NCI-H226 lung = system: NCI-H226 lung
NCI-H23 lung = system: NCI-H23 lung
NCI-H460 lung = system: NCI-H460 lung
NCI-H522 lung = system: NCI-H522 lung
NCI/ADR-RES ovarian = system: NCI/ADR-RES ovarian
OVCAR-3 ovarian = system: OVCAR-3 ovarian
OVCAR-4 ovarian = system: OVCAR-4 ovarian
OVCAR-5 ovarian = system: OVCAR-5 ovarian
OVCAR-8 ovarian = system: OVCAR-8 ovarian
PC-3 prostate = system: PC-3 prostate
RPMI-8226 leukemia = system: RPMI-8226 leukemia
RXF 393 renal = system: RXF 393 renal
SF-268 CNS = system: SF-268 CNS
SF-295 CNS = system: SF-295 CNS
SF-539 CNS = system: SF-539 CNS
SK-MEL-2 melanoma = system: SK-MEL-2 melanoma
SK-MEL-28 melanoma = system: SK-MEL-28 melanoma
SK-MEL-5 melanoma = system: SK-MEL-5 melanoma
SK-OV-3 ovarian = system: SK-OV-3 ovarian
SN12C renal = system: SN12C renal
SNB-19 CNS = system: SNB-19 CNS
SNB-75 CNS = system: SNB-75 CNS
SR leukemia = system: SR leukemia
SW-620 colon = system: SW-620 colon
T-47D breast = system: T-47D breast
TK-10 renal = system: TK-10 renal
U251 CNS = system: U251 CNS
UACC-257 melanoma = system: UACC-257 melanoma
UACC-62 melanoma = system: UACC-62 melanoma
UO-31 renal = system: UO-31 renal
MALME-3M melanoma = system: MALME-3M melanoma

For `CN(C)c1nc(N)nc(CCl)n1`, the TGI (786-0 renal) was 58.3 µM, the TGI (A498 renal) was 70.8 µM and the TGI (A549 NSCLC) was > 100 µM. For the same molecule, the TGI (ACHN renal) was 39.7 µM, the TGI (BT-549 breast) was > 100 µM and the TGI (CAKI-1 renal) was 18 µM. The TGI (CCRF-CEM leukemia) was 58.6 µM, the TGI (COLO 205 colon) was 61.8 µM and the TGI (DU-145 prostate) was > 100 µM. The TGI (EKVX NSCLC) was 41.6 µM, the TGI (HCC-2998 colon) was > 100 µM and the TGI (HCT-116 colon) was > 100 µM. For the same molecule, the TGI (HCT-15 colon) was 93 µM, the TGI (HL-60(TB) leukemia) was 78.2 µM and the TGI (HOP-62 NSCLC) was 46.8 µM. For the same molecule, the TGI (HOP-92 NSCLC) was 45.6 µM, the TGI (HS 578T breast) was > 100 µM and the TGI (HT29 colon) was > 100 µM. The TGI (IGROV1 ovarian) was 35 µM, the TGI (K-562 leukemia) was 84.4 µM and the TGI (KM12 colon) was > 100 µM. The TGI (LOX IMVI melanoma) was 21.9 µM, the TGI (M14 melanoma) was > 100 µM and the TGI (MCF7 breast) was > 100 µM. For the same molecule, the TGI (MDA-MB-231 breast) was 72.4 µM, the TGI (MDA-MB-435) was > 100 µM and the TGI (MOLT-4 leukemia) was > 100 µM. For the same molecule, the TGI (NCI-H226 lung) was > 100 µM, the TGI (NCI-H23 lung) was 68.9 µM and the TGI (NCI-H460 lung) was > 100 µM. It also gave a TGI (NCI-H522 lung) of 25 µM, a TGI (NCI/ADR-RES ovarian) of 86.8 µM and a TGI (OVCAR-3 ovarian) of 49 µM. For the same molecule, the TGI (OVCAR-4 ovarian) was 38.2 µM, the TGI (OVCAR-5 ovarian) was > 100 µM and the TGI (OVCAR-8 ovarian) was > 100 µM. For the same molecule, the TGI (PC-3 prostate) was > 100 µM, the TGI (RPMI-8226 leukemia) was > 100 µM and the TGI (RXF 393 renal) was > 100 µM. The TGI (SF-268 CNS) was > 100 µM, the TGI (SF-295 CNS) was > 100 µM and the TGI (SF-539 CNS) was 60.2 µM. The TGI (SK-MEL-2 melanoma) was > 100 µM, the TGI (SK-MEL-28 melanoma) was > 100 µM and the TGI (SK-MEL-5 melanoma) was 90.6 µM. The TGI (SK-OV-3 ovarian) was > 100 µM, the TGI (SN12C renal) was > 100 µM and the TGI (SNB-19 CNS) was > 100 µM. The TGI (SNB-75 CNS) was 11.3 µM, the TGI (SR leukemia) was 65.8 µM and the TGI (SW-620 colon) was 87.7 µM. For the same molecule, the TGI (T-47D breast) was > 100 µM, the TGI (TK-10 renal) was > 100 µM and the TGI (U251 CNS) was > 100 µM. For the same molecule, the TGI (UACC-257 melanoma) was > 100 µM, the TGI (UACC-62 melanoma) was 41.5 µM and the TGI (UO-31 renal) was 26.1 µM.
In the case of `Cn1cc(-c2nonc2-c2cn(C)c3ccc(F)cc23)c2ccccc21`, the GI50 (786-0 renal) is reported as 0.614 µM, the TGI (786-0 renal) is reported as > 100 µM and the GI50 (A498 renal) is reported as 0.273 µM. The TGI (A498 renal) was 0.976 µM, the GI50 (A549 NSCLC) was 0.703 µM and the TGI (A549 NSCLC) was > 100 µM. For the same molecule, the GI50 (ACHN renal) was 0.595 µM, the TGI (ACHN renal) was > 100 µM and the GI50 (BT-549 breast) was 0.923 µM. For the same molecule, the TGI (BT-549 breast) was > 100 µM, the GI50 (CAKI-1 renal) was 0.416 µM and the TGI (CAKI-1 renal) was > 100 µM. For the same molecule, the GI50 (CCRF-CEM leukemia) was 0.319 µM, the TGI (CCRF-CEM leukemia) was > 100 µM and the GI50 (COLO 205 colon) was 0.856 µM. For the same molecule, the TGI (COLO 205 colon) was > 100 µM, the GI50 (DU-145 prostate) was 0.53 µM and the TGI (DU-145 prostate) was > 100 µM. The GI50 (EKVX NSCLC) was 0.721 µM, the TGI (EKVX NSCLC) was > 100 µM and the GI50 (HCC-2998 colon) was 0.958 µM. For the same molecule, the TGI (HCC-2998 colon) was > 100 µM, the GI50 (HCT-116 colon) was 0.432 µM and the TGI (HCT-116 colon) was > 100 µM. The GI50 (HCT-15 colon) was 0.398 µM, the TGI (HCT-15 colon) was > 100 µM and the GI50 (HL-60(TB) leukemia) was 0.306 µM. For the same molecule, the TGI (HL-60(TB) leukemia) was 2.3 µM, the GI50 (HOP-62 NSCLC) was 0.59 µM and the TGI (HOP-62 NSCLC) was > 100 µM. For the same molecule, the GI50 (HOP-92 NSCLC) was 0.439 µM, the TGI (HOP-92 NSCLC) was > 100 µM and the GI50 (HS 578T breast) was 0.299 µM. The GI50 (HT29 colon) was 0.346 µM, the TGI (HT29 colon) was > 100 µM and the GI50 (IGROV1 ovarian) was 0.522 µM. The TGI (IGROV1 ovarian) was > 100 µM, the GI50 (K-562 leukemia) was 0.311 µM and the TGI (K-562 leukemia) was > 100 µM. The GI50 (KM12 colon) was 0.433 µM, the TGI (KM12 colon) was > 100 µM and the GI50 (LOX IMVI melanoma) was 0.564 µM. For the same molecule, the TGI (LOX IMVI melanoma) was > 100 µM, the GI50 (M14 melanoma) was 0.342 µM and the TGI (M14 melanoma) was > 100 µM. For the same molecule, the GI50 (MALME-3M melanoma) was 0.54 µM, the TGI (MALME-3M melanoma) was > 100 µM and the GI50 (MCF7 breast) was 0.366 µM. For the same molecule, the TGI (MCF7 breast) was > 100 µM, the GI50 (MDA-MB-231 breast) was 0.869 µM and the TGI (MDA-MB-231 breast) was > 100 µM. It also gave a GI50 (MDA-MB-435) of 0.199 µM, a TGI (MDA-MB-435) of 0.623 µM and a GI50 (MOLT-4 leukemia) of 0.685 µM. The TGI (MOLT-4 leukemia) was > 100 µM, the GI50 (NCI-H226 lung) was 2.56 µM and the TGI (NCI-H226 lung) was > 100 µM. The GI50 (NCI-H23 lung) was 0.836 µM, the TGI (NCI-H23 lung) was > 100 µM and the GI50 (NCI-H460 lung) was 0.39 µM. The TGI (NCI-H460 lung) was > 100 µM, the GI50 (NCI-H522 lung) was 0.357 µM and the TGI (NCI-H522 lung) was > 100 µM. The GI50 (NCI/ADR-RES ovarian) was 0.395 µM, the TGI (NCI/ADR-RES ovarian) was > 58.3 µM and the GI50 (OVCAR-3 ovarian) was 0.34 µM. For the same molecule, the TGI (OVCAR-4 ovarian) was > 100 µM, the GI50 (OVCAR-5 ovarian) was 1.05 µM and the TGI (OVCAR-5 ovarian) was > 100 µM. For the same molecule, the GI50 (OVCAR-8 ovarian) was 0.63 µM, the TGI (OVCAR-8 ovarian) was > 100 µM and the GI50 (PC-3 prostate) was 0.427 µM. The TGI (PC-3 prostate) was > 100 µM, the GI50 (RPMI-8226 leukemia) was 0.463 µM and the TGI (RPMI-8226 leukemia) was > 100 µM. The GI50 (RXF 393 renal) was 0.271 µM, the TGI (RXF 393 renal) was 0.873 µM and the GI50 (SF-268 CNS) was 1.21 µM. The TGI (SF-268 CNS) was > 100 µM, the GI50 (SF-295 CNS) was 0.299 µM and the GI50 (SF-539 CNS) was 0.291 µM. The TGI (SF-539 CNS) was 1.58 µM, the GI50 (SK-MEL-2 melanoma) was 0.552 µM and the TGI (SK-MEL-2 melanoma) was > 100 µM. For the same molecule, the GI50 (SK-MEL-28 melanoma) was 3.5 µM, the TGI (SK-MEL-28 melanoma) was > 100 µM and the GI50 (SK-MEL-5 melanoma) was 0.502 µM. For the same molecule, the TGI (SK-MEL-5 melanoma) was > 100 µM, the GI50 (SK-OV-3 ovarian) was 0.594 µM and the TGI (SK-OV-3 ovarian) was > 100 µM. The GI50 (SN12C renal) was 0.724 µM, the TGI (SN12C renal) was > 100 µM and the GI50 (SNB-19 CNS) was 0.555 µM. The TGI (SNB-19 CNS) was > 100 µM, the GI50 (SNB-75 CNS) was 0.206 µM and the TGI (SNB-75 CNS) was 0.702 µM. The GI50 (SR leukemia) was 0.269 µM, the TGI (SR leukemia) was > 100 µM and the GI50 (SW-620 colon) was 0.361 µM. For the same molecule, the TGI (SW-620 colon) was > 100 µM, the GI50 (T-47D breast) was 0.809 µM and the TGI (T-47D breast) was > 100 µM. The GI50 (TK-10 renal) was > 20.4 µM, the TGI (TK-10 renal) was > 100 µM and the GI50 (U251 CNS) was 0.469 µM. The TGI (U251 CNS) was > 100 µM, the GI50 (UACC-62 melanoma) was 0.469 µM and the TGI (UACC-62 melanoma) was > 100 µM. The GI50 (UO-31 renal) was 0.438 µM and the TGI (UO-31 renal) was > 100 µM.
